Measurements reported in patent publication US7074789B2, “Kinase inhibitors” (Amgen Inc., priority 1999, dated 2006).

How the values were obtained:
Assay type in all cases: biochemical
Ret-1 = target: T1, Ret-1 (Homo sapiens, UniProt P07949); test: Kinase inhibition assay (33P transfer), Ret; details: Table 6, Ret-1 kinase inhibition class
T1 construct: Kinases are expressed as either kinase domains or full length constructs; made in house

IGFR-1 = target: T2, IGFR-1 (Homo sapiens, UniProt P08069); test: Kinase inhibition assay, IGFR-1 (Table 2); details: Table 2, kinase inhibition class
T2 construct: Kinases are expressed as either kinase domains or full length constructs; made in house
T2 sequence (P08069 31-1367): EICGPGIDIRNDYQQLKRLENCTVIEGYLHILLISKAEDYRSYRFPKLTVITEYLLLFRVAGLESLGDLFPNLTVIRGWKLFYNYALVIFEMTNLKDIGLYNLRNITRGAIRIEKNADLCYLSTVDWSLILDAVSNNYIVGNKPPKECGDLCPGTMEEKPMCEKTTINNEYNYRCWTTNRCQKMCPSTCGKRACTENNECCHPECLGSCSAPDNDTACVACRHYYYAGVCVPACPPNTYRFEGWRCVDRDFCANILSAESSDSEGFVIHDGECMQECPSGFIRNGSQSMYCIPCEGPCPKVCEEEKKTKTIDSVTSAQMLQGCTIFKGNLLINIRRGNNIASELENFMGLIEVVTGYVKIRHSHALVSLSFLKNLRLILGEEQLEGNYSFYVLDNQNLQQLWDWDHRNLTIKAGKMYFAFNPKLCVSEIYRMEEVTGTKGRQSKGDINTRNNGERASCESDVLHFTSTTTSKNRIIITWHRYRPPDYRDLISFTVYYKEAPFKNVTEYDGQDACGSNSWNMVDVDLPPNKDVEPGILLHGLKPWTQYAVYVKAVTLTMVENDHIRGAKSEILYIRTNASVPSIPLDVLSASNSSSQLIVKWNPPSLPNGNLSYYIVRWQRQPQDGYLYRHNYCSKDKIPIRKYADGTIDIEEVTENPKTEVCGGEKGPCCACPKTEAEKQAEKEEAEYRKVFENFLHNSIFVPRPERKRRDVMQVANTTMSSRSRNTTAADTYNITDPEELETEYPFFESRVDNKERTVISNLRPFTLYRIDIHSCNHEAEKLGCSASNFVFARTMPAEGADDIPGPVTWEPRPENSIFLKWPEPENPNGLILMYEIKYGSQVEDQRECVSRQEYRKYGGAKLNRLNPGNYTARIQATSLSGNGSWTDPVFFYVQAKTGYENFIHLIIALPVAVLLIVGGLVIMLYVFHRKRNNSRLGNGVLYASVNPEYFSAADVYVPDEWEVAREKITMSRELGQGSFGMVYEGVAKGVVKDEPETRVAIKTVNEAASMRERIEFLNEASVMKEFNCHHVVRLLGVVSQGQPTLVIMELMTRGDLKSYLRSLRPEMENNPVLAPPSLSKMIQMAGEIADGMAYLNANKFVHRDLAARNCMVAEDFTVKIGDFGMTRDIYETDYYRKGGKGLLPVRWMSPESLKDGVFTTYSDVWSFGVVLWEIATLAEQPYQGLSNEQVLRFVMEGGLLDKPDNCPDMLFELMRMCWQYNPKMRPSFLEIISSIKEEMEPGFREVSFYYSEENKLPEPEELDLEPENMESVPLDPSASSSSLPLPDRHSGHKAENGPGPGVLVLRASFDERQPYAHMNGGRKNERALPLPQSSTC

ErbB2 = target: T3, ErbB2 (Homo sapiens, UniProt P04626); test: Kinase inhibition assay (33P transfer), ErbB2; details: read-out: ErbB2-2
T3 construct: Kinases are expressed as either kinase domains or full length constructs; made in house
Procedure, shortened: (§1)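 Steps: coat wells with poly(Glu,Tyr) 4:1 or poly(Arg,Ser) 3:1; add purified kinase, [33P]ATP and inhibitor; incubate; wash with 0.5% phosphoric acid; add liquid scintillant; count. IC50 corresponds to half-maximal reduction of bound 33P.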

Zap-70 = target: T4, Zap-70 (Homo sapiens, UniProt P43403); test: Kinase inhibition assay (33P transfer), Zap-70; details: read-out: Zap-1
T4 construct: Kinases are expressed as either kinase domains or full length constructs; made in house
T4 sequence (P43403 1-619): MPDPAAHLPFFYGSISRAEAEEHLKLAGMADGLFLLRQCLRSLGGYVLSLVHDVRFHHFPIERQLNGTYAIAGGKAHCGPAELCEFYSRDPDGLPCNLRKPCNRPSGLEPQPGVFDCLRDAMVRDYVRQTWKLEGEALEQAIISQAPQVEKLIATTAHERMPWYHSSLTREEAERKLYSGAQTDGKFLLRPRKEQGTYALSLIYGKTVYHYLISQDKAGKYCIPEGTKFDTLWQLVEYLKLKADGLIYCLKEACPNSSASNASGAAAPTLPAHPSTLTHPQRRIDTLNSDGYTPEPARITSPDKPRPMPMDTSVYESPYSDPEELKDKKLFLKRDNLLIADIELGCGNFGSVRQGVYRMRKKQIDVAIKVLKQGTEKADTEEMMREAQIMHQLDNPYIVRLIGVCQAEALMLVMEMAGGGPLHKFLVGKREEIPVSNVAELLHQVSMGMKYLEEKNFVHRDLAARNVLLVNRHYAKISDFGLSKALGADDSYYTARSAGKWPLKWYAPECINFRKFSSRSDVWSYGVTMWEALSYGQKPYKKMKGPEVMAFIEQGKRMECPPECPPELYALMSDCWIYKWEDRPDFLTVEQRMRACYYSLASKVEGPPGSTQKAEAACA
Procedure, shortened: (§2)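 Activity was read as 33P incorporation, counted by liquid scintillation after a 0.5% phosphoric acid wash, into poly(Glu,Tyr) 4:1 or poly(Arg,Ser) 3:1 substrates coated on plates. Enzymes were tagged (GST or polyHis) kinase domains or full-length proteins from bacterial or insect-cell expression, sometimes with regulatory polypeptides.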

Lyn = target: T5, Lyn (Homo sapiens, UniProt P07948); test: Kinase inhibition assay (33P transfer), Lyn; details: Table 6, Lyn-1 kinase inhibition class
T5 construct: Kinases are expressed as either kinase domains or full length constructs; made in house
Procedure, shortened: as §1

EGFR = target: T6, EGFR (Homo sapiens, UniProt P00533); test: Kinase inhibition assay (33P transfer), EGFR; details: Table 2, kinase inhibition class; read-out: EGFR-1
T6 construct: Kinases are expressed as either kinase domains or full length constructs; made in house
T6 sequence (P00533 25-1210, species assumed): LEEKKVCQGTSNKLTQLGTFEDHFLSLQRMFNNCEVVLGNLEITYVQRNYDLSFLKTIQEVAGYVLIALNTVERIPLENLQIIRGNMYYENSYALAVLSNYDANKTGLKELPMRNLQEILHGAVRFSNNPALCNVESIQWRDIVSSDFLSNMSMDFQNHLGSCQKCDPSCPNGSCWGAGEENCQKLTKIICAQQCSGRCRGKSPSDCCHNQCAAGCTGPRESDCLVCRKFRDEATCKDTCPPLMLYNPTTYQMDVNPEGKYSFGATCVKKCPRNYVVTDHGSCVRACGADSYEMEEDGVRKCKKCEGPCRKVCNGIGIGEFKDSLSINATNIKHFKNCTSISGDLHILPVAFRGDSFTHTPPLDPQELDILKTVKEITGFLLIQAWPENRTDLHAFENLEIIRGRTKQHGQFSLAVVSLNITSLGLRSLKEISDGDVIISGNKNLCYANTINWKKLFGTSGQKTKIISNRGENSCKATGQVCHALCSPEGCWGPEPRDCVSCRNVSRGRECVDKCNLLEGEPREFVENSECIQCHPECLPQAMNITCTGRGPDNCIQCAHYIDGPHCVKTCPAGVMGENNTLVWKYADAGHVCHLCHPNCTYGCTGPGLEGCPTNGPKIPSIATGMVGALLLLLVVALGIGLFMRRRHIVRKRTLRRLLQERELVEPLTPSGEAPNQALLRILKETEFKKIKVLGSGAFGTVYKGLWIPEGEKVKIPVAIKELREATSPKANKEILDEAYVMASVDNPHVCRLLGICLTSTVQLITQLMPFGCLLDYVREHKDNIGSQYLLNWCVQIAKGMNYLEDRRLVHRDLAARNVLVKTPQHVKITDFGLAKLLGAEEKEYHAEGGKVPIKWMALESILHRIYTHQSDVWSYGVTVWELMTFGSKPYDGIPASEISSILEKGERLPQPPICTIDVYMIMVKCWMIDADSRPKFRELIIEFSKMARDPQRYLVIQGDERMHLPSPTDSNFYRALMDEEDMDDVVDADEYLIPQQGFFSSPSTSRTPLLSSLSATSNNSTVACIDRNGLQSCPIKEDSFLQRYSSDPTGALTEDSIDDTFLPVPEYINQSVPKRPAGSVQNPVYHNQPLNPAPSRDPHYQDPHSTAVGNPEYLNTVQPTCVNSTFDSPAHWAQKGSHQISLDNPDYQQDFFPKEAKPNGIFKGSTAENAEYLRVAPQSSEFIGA
Procedure, shortened: as §1

Itk = target: T7, Itk (Homo sapiens, UniProt Q08881); test: Kinase inhibition assay (33P transfer), Itk; details: read-out: Itk-1
T7 construct: Kinases are expressed as either kinase domains or full length constructs; made in house
T7 sequence (Q08881 1-620): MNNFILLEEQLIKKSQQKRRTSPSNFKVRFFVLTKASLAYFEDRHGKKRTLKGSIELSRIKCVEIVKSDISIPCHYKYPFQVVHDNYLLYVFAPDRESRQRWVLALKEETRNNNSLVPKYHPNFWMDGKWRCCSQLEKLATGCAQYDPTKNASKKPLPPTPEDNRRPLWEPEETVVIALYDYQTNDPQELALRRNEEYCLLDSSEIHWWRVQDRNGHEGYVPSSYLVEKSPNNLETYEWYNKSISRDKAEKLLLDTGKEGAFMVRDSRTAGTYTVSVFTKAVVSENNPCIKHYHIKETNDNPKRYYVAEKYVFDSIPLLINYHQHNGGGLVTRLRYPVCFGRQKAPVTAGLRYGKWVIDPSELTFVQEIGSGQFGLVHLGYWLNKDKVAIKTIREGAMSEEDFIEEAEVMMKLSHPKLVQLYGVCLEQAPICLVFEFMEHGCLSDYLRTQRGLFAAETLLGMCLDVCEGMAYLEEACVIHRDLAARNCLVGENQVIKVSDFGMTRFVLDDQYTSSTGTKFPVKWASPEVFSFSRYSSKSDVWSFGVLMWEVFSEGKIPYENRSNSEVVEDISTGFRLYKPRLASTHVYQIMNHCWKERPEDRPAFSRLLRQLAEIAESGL
Procedure, shortened: as §1

FGFR1 = target: T8, FGFR1 (Homo sapiens, UniProt P11362); test: Kinase inhibition assay (33P transfer), FGFR1; details: read-out: FGFR1-1
T8 construct: Kinases are expressed as either kinase domains or full length constructs; made in house
T8 sequence (P11362 22-822, species assumed): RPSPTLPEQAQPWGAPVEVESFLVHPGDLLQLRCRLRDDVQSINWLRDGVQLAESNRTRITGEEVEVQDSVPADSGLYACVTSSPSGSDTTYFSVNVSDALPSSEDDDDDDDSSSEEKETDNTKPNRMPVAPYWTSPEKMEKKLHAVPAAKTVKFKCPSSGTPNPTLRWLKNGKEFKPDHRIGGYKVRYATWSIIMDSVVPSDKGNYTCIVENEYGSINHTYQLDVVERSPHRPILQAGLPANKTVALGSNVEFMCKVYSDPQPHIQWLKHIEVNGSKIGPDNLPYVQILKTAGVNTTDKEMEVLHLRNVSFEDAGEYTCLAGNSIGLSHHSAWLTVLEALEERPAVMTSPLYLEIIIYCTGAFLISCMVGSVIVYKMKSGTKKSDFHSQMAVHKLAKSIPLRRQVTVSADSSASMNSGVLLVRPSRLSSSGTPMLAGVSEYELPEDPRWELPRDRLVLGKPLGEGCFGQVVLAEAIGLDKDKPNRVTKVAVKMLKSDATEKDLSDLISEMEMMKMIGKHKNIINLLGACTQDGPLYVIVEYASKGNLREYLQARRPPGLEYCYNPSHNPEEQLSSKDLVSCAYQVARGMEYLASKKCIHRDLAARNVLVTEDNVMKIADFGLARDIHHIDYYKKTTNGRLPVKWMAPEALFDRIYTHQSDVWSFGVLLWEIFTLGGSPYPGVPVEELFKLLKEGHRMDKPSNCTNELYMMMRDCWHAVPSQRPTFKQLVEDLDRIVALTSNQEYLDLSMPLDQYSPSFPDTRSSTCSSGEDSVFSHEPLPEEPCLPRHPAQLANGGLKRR

Tek = target: T9, Tek (Homo sapiens, UniProt Q02763); test: Kinase inhibition assay (33P transfer), Tek; details: read-out: Tek-1
T9 construct: Kinases are expressed as either kinase domains or full length constructs; made in house
Procedure, shortened: as §1

Flt-1 = target: T10, Flt-1 (Homo sapiens, UniProt P17948); test: Kinase inhibition assay (33P transfer), Flt-1
T10 construct: Kinases are expressed as either kinase domains or full length constructs; made in house
Procedure, shortened: as §1

AKT = target: T11, AKT (Homo sapiens, UniProt Q9Y243); test: Kinase inhibition assay (33P transfer), AKT; details: Table 2, kinase inhibition class; read-out: AKT3-1
T11 construct: Kinases are expressed as either kinase domains or full length constructs; made in house
T11 sequence (Q9Y243 whole entry, the tested form may be a part): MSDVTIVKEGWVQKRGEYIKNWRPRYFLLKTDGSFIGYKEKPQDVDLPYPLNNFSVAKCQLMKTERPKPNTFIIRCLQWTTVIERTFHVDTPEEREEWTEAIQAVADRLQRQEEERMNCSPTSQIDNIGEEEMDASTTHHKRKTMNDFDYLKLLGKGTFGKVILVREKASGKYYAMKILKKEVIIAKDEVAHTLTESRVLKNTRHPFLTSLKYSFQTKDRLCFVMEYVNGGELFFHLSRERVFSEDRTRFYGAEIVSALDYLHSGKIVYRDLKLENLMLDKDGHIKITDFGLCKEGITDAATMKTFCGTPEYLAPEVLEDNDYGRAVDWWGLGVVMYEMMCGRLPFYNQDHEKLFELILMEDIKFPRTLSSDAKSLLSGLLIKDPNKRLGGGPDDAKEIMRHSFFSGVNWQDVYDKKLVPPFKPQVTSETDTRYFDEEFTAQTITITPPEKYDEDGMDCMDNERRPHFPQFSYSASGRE
Procedure, shortened: as §2

Fyn = target: T12, Fyn (Homo sapiens, UniProt P06241); test: Kinase inhibition assay (33P transfer), Fyn; details: read-out: Fyn-1
T12 construct: Kinases are expressed as either kinase domains or full length constructs; made in house
Procedure, shortened: as §1

Lck = target: T13, Lck (Homo sapiens, UniProt P06239); test: Kinase inhibition assay (33P transfer), Lck; details: read-out: Lck-1
T13 construct: Kinases are expressed as either kinase domains or full length constructs; made in house
Procedure, shortened: as §2

c-Met = target: T14, c-Met (Homo sapiens, UniProt P08581); test: Kinase inhibition assay (33P transfer), c-Met; details: Table 2, kinase inhibition class; read-out: Met-1
T14 construct: Kinases are expressed as either kinase domains or full length constructs; made in house
Procedure, shortened: as §1

Hck-1 = target: T15, Hck-1 (Homo sapiens, UniProt P08631); test: Kinase inhibition assay (33P transfer), Hck; details: Table 6, Hck-1 kinase inhibition class
T15 construct: Kinases are expressed as either kinase domains or full length constructs; made in house

PDGFRB = target: T16, PDGFRB (Homo sapiens, UniProt P09619); test: Kinase inhibition assay (33P transfer), PDGFRB; details: read-out: PDGFRB-1
T16 construct: Kinases are expressed as either kinase domains or full length constructs; made in house
T16 sequence (P09619 33-1106, species assumed): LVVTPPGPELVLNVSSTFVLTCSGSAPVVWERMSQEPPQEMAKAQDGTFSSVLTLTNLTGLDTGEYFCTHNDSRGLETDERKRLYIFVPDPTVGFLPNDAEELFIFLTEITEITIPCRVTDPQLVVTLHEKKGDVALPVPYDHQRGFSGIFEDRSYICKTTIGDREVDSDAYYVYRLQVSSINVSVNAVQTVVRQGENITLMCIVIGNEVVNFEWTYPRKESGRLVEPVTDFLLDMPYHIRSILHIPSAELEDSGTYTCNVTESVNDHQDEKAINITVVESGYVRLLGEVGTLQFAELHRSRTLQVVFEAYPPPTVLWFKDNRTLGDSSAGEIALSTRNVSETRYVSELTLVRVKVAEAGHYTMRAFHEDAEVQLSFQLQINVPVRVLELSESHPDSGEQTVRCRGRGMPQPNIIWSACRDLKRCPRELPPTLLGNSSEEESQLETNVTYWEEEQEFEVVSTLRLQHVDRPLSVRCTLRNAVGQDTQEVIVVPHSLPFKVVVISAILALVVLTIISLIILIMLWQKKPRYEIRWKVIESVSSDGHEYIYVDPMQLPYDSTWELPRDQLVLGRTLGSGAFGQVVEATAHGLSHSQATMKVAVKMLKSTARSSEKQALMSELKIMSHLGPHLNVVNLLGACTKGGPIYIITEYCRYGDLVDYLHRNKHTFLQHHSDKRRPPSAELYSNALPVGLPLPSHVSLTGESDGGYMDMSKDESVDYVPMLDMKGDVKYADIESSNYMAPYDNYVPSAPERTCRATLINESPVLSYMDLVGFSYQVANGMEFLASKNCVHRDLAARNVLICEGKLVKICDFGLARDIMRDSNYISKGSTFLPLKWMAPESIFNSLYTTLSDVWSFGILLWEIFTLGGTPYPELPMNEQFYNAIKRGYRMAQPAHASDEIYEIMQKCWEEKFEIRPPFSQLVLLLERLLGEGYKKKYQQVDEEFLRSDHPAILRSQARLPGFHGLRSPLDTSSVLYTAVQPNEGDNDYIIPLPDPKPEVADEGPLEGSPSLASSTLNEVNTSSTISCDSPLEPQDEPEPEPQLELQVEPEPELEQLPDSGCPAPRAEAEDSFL

Src = target: T17, Src (Homo sapiens, UniProt P12931); test: Kinase inhibition assay (33P transfer), Src; details: Table 6, Src-1 kinase inhibition class
T17 construct: Kinases are expressed as either kinase domains or full length constructs; made in house
Procedure, shortened: as §1

Kdr = target: T18, Kdr (Homo sapiens, UniProt P35968); test: Kinase inhibition assay (33P transfer), Kdr; details: read-out: KDR-1
T18 construct: Kinases are expressed as either kinase domains or full length constructs; made in house
Procedure, shortened: as §2

ErbB4 = target: T19, ErbB4 (Homo sapiens, UniProt Q15303); test: Kinase inhibition assay (33P transfer), ErbB4; details: read-out: ErbB4-1
T19 construct: Kinases are expressed as either kinase domains or full length constructs; made in house

| SMILES | IC50 (Ret-1) [µM] | IC50 (IGFR-1) [µM] | IC50 (ErbB2) [µM] | IC50 (Zap-70) [µM] | IC50 (Lyn) [µM] | IC50 (EGFR) [µM] | IC50 (Itk) [µM] | IC50 (FGFR1) [µM] | IC50 (Tek) [µM] | IC50 (Flt-1) [µM] | IC50 (AKT) [µM] | IC50 (Fyn) [µM] | IC50 (Lck) [µM] | IC50 (c-Met) [µM] | IC50 (Hck-1) [µM] | IC50 (PDGFRB) [µM] | IC50 (Src) [µM] | IC50 (Kdr) [µM] | IC50 (ErbB4) [µM] |
| --- | --- | --- | --- | --- | --- | --- | --- | --- | --- | --- | --- | --- | --- | --- | --- | --- | --- | --- | --- |
| COc1cc(Nc2ncnc(-n3c(N[C@@H](C)c4ccccc4)nc4ccccc43)n2)cc(OC)c1OC [Compound 1033] | < 0.804 | > 9.04 | 7.03 to 9.04 | > 9.04 | < 0.804 | 4.82 to 7.03 | > 9.04 | < 0.804 | > 9.04 | < 0.804 | > 9.04 | < 0.804 | < 0.804 | > 9.04 | > 9.04 | < 0.804 | 0.804 to 4.82 | < 0.804 | 0.804 to 4.82 |
| COc1cc(Nc2ncnc(-n3c(NCc4ccccc4F)nc4ccccc43)n2)cc(OC)c1OC [Compound 512] | < 0.798 | > 8.97 | 4.79 to 6.98 | > 8.97 | < 0.798 | > 8.97 | > 8.97 | < 0.798 | > 8.97 | 0.798 to 4.79 | > 8.97 | > 8.97 | 0.798 to 4.79 | > 8.97 | > 8.97 | < 0.798 | > 8.97 | < 0.798 | 0.798 to 4.79 |
| COc1cc(Nc2ncnc(-n3c(NCc4ccc(C)cc4)nc4ccccc43)n2)cc(OC)c1OC [Compound 516] | < 0.804 | > 9.04 | > 9.04 | > 9.04 | > 9.04 | > 9.04 | > 9.04 | < 0.804 | > 9.04 | 4.82 to 7.03 | > 9.04 | > 9.04 | 4.82 to 7.03 | > 9.04 | > 9.04 | 7.03 to 9.04 | > 9.04 | < 0.804 | > 9.04 |
| COc1cc(Nc2ncnc(-n3c(NCc4ccccn4)nc4ccccc43)n2)cc(OC)c1OCCN1CCOCC1 [Compound 519] | < 0.685 | 0.685 to 4.11 | > 7.71 | > 7.71 | 6 to 7.71 | > 7.71 | > 7.71 | < 0.685 | > 7.71 | 0.685 to 4.11 | > 7.71 | > 7.71 | 0.685 to 4.11 | > 7.71 | > 7.71 | < 0.685 | > 7.71 | < 0.685 | > 7.71 |
| NC(=O)c1ccc(Nc2ncnc(-c3cccnc3NCc3ccccc3)n2)cc1 [Compound 1082] | < 1.01 | 6.04 to 8.81 | > 11.3 | 1.01 to 6.04 | 6.04 to 8.81 | 1.01 to 6.04 | > 11.3 | > 11.3 | 1.01 to 6.04 | > 11.3 | > 11.3 | > 11.3 | 1.01 to 6.04 | 8.81 to 11.3 | > 11.3 | 1.01 to 6.04 | > 11.3 | < 1.01 | 1.01 to 6.04 |
| COc1cc(Nc2ncnc(N(C)c3ccc(Cl)cc3)n2)cc(OC)c1OC [Compound 616] | < 0.995 | 0.995 to 5.97 | 0.995 to 5.97 | > 11.2 | 0.995 to 5.97 | < 0.995 | > 11.2 | 0.995 to 5.97 | 0.995 to 5.97 | 0.995 to 5.97 | > 11.2 | 0.995 to 5.97 | < 0.995 | < 0.995 | 5.97 to 8.71 | < 0.995 | < 0.995 | < 0.995 | 0.995 to 5.97 |
| COc1cc(Nc2ncnc(-n3c(NCc4ccc(F)cc4Cl)nc4ccccc43)n2)cc(OC)c1OC [Compound 951] | < 0.746 | > 8.4 | > 8.4 | > 8.4 | > 8.4 | 6.53 to 8.4 | > 8.4 | < 0.746 | 4.48 to 6.53 | > 8.4 | > 8.4 | > 8.4 | 0.746 to 4.48 | > 8.4 | > 8.4 | < 0.746 | > 8.4 | < 0.746 | > 8.4 |
